Results on four compounds are retold here after US20070166547A1, “Use of a layer consisting of hydrophobic linear, or two-dimensional polycyclic aromatics as a barrier layer or an encapsulation and electric components constructed with a layer of this type and comprising organic polymers” (priority 2003, published 2007).

The structures appear in SMILES notation.

In data set [1] the test system is adenosine-sensitive receptors of erythrocytes. Kind of data set: Chemiluminescence study of bonding to erythrocytes and competition with adenosine. Conditions: 37° C. vs 4° C.; 10^−7 to 10^−5 M. It is filed as binding, mice of line BALB/c. As for the experimental part:
The interaction of compounds 2, 15, 21, 37 according to the invention with adenosine-sensitive receptors of erythrocytes of female mice of line BALB/c of an age of 8-12 months was investigated.
The dependence of the chemiluminescence intensity of the compounds according to the invention in an alkaline solution of 0.1N NaOH was determined in the presence of hydrogen peroxide being an initiator of chemiluminescence. The chemiluminescence was studied using the <<LKB>> chemiluminometer.
The erythrocytes of peripheral blood of the mice at first were washed three times by a normal physiological solution with centrifuging and then diluted in the Henks solution without glucose by 10 volumes of distilled water immediately used in the experiment.
At the first stage of the experiments the washed erythrocytes were incubated at a temperature of 37° C. or at 4° C. with solutions of the compounds according to the invention at a concentration of 10^−7 to 10^−5 M for 5-30 minutes, then washed by a normal physiological solution with repeated centrifuging in the cold. The obtained suspension of erythrocytes with the bound compounds according to the invention was placed in 0.1N solution of NaOH with addition of hydrogen peroxide at a final concentration of 10^−7 M. The chemiluminescence intensity was measured. A suspension of erythrocytes without compounds according to the invention was used as a control medium.
At the second stage of the experiments the washed erythrocytes were incubated at a temperature of 37° C. with solutions of the compounds according to the invention at a concentration of 10^−11 to 10^−8M during
5-30 minutes, then washed twice with a normal physiological solution by centrifuging in the cold, the obtained suspension was mixed with an adenosine solution at a concentration of 10^−6 to 10^−4 and incubated for 15 minutes, then washed twice with a normal physiological solution with centrifuging in the cold. The obtained suspension of erythrocytes with the compounds according to the invention was placed in 0.1N solution of NaOH with addition of hydrogen peroxide in the final concentration of 10^−7 M. The chemiluminescence intensity was measured.

A short description of data set [2]: Polarographic study of electrochemical reduction (electrochemical activity). It is filed as physicochemical. Conditions: for number of electrons participating in the reduction: calculated with the Geirovsky-Ilkovich equation; for i, mkA (polarographic wave current) / −E1/2, V (half-wave potential vs SCE): 37° C., forward trace, average for the group; for i, mkA (polarographic wave current): 9·10^−4 M; for half-wave potential more positive on reverse stroke than on forward stroke: reverse stroke vs forward stroke. The method in brief:
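DC polarography at 37 °C on a dropping mercury electrode (0.5 s drop) against SCE with a Pt auxiliary electrode. Compounds at 9·10^−4 M in N2-purged 2.0% NaCl at pH 7.0–7.6, scanned 0 to −0.5 V at 10.0 mV/s. E1/2 and ilim were determined graphically; electron number was derived by Heyrovsky–Ilkovič analysis.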

The nature of data set [3]: Chronic toxicity, rectal suppositories: indexes of peripheral blood. Conditions: male rats; for Basophiles / Juveniles: 1 month/2 months (one value given).
Procedure: The experiments were conducted on inbred rats. The experimental animals were selected in groups by a method of random sampling taking into account the body mass as a determining index; 24 males or 24 females for one preparation from compounds 2, 15, 23, 34, 37 investigated in one dose.
Two doses of preparations used in the experiments: 50 mg/kg and 500 mg/kg. Before the administration, the suppositories were softened by heating in a glass water bath at a temperature of 38-39° C., the soft mass was collected in tuberculin syringe in a volume of 1 ml, a needle with oliva was attached to the syringe, and the preparatory mass was introduced into the rectum of the animal for a depth of 1.5-2.0 cm. The animals of the control group were administered with sterile medical liquid paraffin in a volume corresponding to the volume of the investigated suppository. A complete course of administration of drugs to the animals was two months. A complex of laboratory diagnostic investigations was carried out one month after the beginning of the administration of the preparation to the animal—in a middle of the course (8 animals), two months after ending the course (8 animals) and three months after ending the recovery period of one month (8 animals). The mass of the body of the rats in the first month of administration of the preparation was determined weekly, and then once in two weeks. On the basis of the dynamics of an index of the mass of the animal body, the volume of preparation being administered was corrected taking into account the test dose.
The mark [4] stands for this setting: suppositories 50 mg/kg, 1 month.
[5] abbreviates: suppositories 50 mg/kg, 2 months.
[6] abbreviates: suppositories 500 mg/kg, 1 month.
Setting [7] is: suppositories 500 mg/kg, 2 months.

With `Nc1cnc2c(=O)n([C@@H]3O[C@H](CO)[C@@H](O)[C@H]3O)[nH]c(=O)c2n1.[Na]` [Compound 21, sodium salt of 3-amino-7-(β-D-ribofuranosile)pyrazine[2,3-d]-6H-pyridazine-5,8-dione], the “bond with the erythrocytes: dependence on incubation temperature” value in data set [1] is “does not depend on the temperature”.

In the case of `O=c1[nH]n([C@@H]2O[C@H](CO)[C@@H](O)[C@H]2O)c(=O)c2nc(O)cnc12.[Na].[Na]` [Compound 23, disodium salt of 2-hydroxy-7-(β-D-ribofuranosile)pyrazine[2,3-Cl]-6H-pyridazine-5,8-dione], in data set [2], the “number of electrons participating in the reduction” value (from here on “number … in the reduction”) is on record as 3.72 and the “half-wave potential more positive on reverse stroke than on forward stroke” value amounted to 20.0 mV. For the same compound, in data set [2] (pH 7.0), the “i, mkA (polarographic wave current)” value is 0.32 ± 0.03 mkA and the “−E1/2, V (half-wave potential vs SCE)” value is given as 0.16 ± 0.02 V. Besides, in data set [2] (pH 7.2), the “i, mkA (polarographic wave current)” value came out at 0.33 ± 0.04 mkA and the “−E1/2, V (half-wave potential vs SCE)” value is 0.19 ± 0.02 V. In addition, in data set [2] (pH 7.4), the “i, mkA (polarographic wave current)” value is reported as 0.34 ± 0.03 mkA and the “−E1/2, V (half-wave potential vs SCE)” value is reported as 0.175 ± 0.01 V. Further, in data set [2] (pH 7.6), the “i, mkA (polarographic wave current)” value is listed as 0.34 ± 0.02 mkA and the “−E1/2, V (half-wave potential vs SCE)” value is listed as 0.16 ± 0.015 V. Moreover, in data set [3] (setting [4]), the “Average volume of erythrocytes” value turned out to be 82.7 ± 1.6 Mkm^3; the “Coagulation, time” value is 150 ± 15 s; the Eosinophiles is 3.6 ± 0.5%; the Erythrocytes is reported as 5.7 ± 0.1 mln/mm^3. In data set [3] (setting [4]), this compound showed a Haematocrite of 47.7 ± 1.2%, a Hemoglobin of 10.7 ± 0.1 mmol/L, a Leukocyte of 15.5 ± 1.1 thousand/mm^3 and an REE of 1.7 ± 0.8 mm/h. Also, in data set [3] (setting [4]), the Reticulocytes is reported as 2.7 ± 0.3%, the Stab neutrophil was 1.1 ± 0.5% and the Thrombocytes came out at 659 ± 18. For the same compound, in data set [3] (suppositories 50 mg/kg), the Basophiles was 0% and the Juveniles was 0%. Further, in data set [3] (setting [5]), the “Average volume of erythrocytes” value was 77.5 ± 1.7 Mkm^3; the “Coagulation, time” value was 313 ± 17 s; the Eosinophiles was found to be 4.0 ± 0.7%; the Erythrocytes stood at 6.0 ± 0.2 mln/mm^3. In data set [3] (setting [5]), this compound registered a Haematocrite of 46.5 ± 1.3%, a Hemoglobin of 11.0 ± 0.1 mmol/L, a Leukocyte of 17.6 ± 1.2 thousand/mm^3 and an REE of 1.5 ± 0.1 mm/h. In data set [3] (setting [5]), this compound registered a Reticulocytes of 2.8 ± 0.1%, a Stab neutrophil of 1.6 ± 0.2% and a Thrombocytes of 586 ± 28. In addition, in data set [3] (setting [6]), the “Average volume of erythrocytes” value was 83.5 ± 1.7 Mkm^3; the “Coagulation, time” value stood at 156 ± 11 s; the Eosinophiles is 3.3 ± 0.7%; the Erythrocytes was determined as 5.7 ± 0.2 mln/mm^3. In data set [3] (setting [6]), the Haematocrite came out at 47.9 ± 1.1%, the Hemoglobin stood at 10.7 ± 0.2 mmol/L, the Leukocyte stood at 16.4 ± 1.1 thousand/mm^3 and the REE is 2.0 ± 0.3 mm/h. In data set [3] (setting [6]), this compound showed a Reticulocytes of 3.1 ± 0.1%, a Stab neutrophil of 1.0 ± 0.3% and a Thrombocytes of 678 ± 18. Further, in data set [3] (suppositories 500 mg/kg), the Basophiles turned out to be 0% and the Juveniles was determined as 0%. Also, in data set [3] (setting [7]), the “Average volume of erythrocytes” value is listed as 82.1 ± 1.4 Mkm^3; the “Coagulation, time” value is 3171 ± 12 s; the Eosinophiles worked out at 3.8 ± 1.3%; the Erythrocytes is 6.4 ± 0.2 mln/mm^3. In data set [3] (setting [7]), this compound displayed a Haematocrite of 49.4 ± 1.9%, a Hemoglobin of 12.3 ± 0.3 mmol/L, a Leukocyte of 20.1 ± 1.7 thousand/mm^3 and an REE of 1.7 ± 0.3 mm/h. In data set [3] (setting [7]), this compound showed a Reticulocytes of 3.4 ± 0.1%, a Stab neutrophil of 1.6 ± 0.2% and a Thrombocytes of 628 ± 23.

As to `O=c1[nH][nH]c(=O)c2nccnc12.[Li]` [Compound 25, lithium salt of pyrazine[2,3-d]-6H-pyridazine-5,8-dione], the “number … in the reduction” value in data set [2] was 3.72. In addition, the “i, mkA (polarographic wave current)” value in data set [2] (pH 7.0) came to 0.32 ± 0.03 mkA; in data set [2] (pH 7.2) it was 0.33 ± 0.04 mkA; in data set [2] (pH 7.4), 0.34 ± 0.03 mkA; in data set [2] (pH 7.6), 0.34 ± 0.02 mkA. Moreover, the “−E1/2, V (half-wave potential vs SCE)” value came out at 0.16 ± 0.02 V in data set [2] (pH 7.0), 0.19 ± 0.02 V in data set [2] (pH 7.2), 0.175 ± 0.01 V in data set [2] (pH 7.4) and 0.16 ± 0.015 V in data set [2] (pH 7.6). Also, in data set [2], the “half-wave potential more positive on reverse stroke than on forward stroke” value is listed as 20.0 mV.

Take `Nc1ncc2c(=O)[nH][nH]c(=O)c2n1` [Compound 36, 2-amino-pyrimido[4,5-d]-6H-pyridazine-5,8-dione]: the “number … in the reduction” value in data set [2] is recorded as 3.5. The “i, mkA (polarographic wave current)” value in data set [2] (pH 7.0) amounted to 0.30 ± 0.05 mkA; in data set [2] (pH 7.2), 0.26 ± 0.02 mkA; in data set [2] (pH 7.4) it was 0.30 ± 0.03 mkA; in data set [2] (pH 7.6), 0.30 ± 0.02 mkA. Moreover, the “−E1/2, V (half-wave potential vs SCE)” value in data set [2] (pH 7.0) came to 0.08 ± 0.02 V; in data set [2] (pH 7.4), 0.085 ± 0.02 V; in data set [2] (pH 7.6) it was 0.09 ± 0.02 V.
